From ChEMBL document CHEMBL4251597, “Discovery and evolution of aloperine derivatives as a new family of HCV inhibitors with novel mechanism” (Eur J Med Chem, 2018)
The source made the active and inactive calls. The calls are words filed in the database; no cut-off is given here.

Tests used:
[1] = test system: Hepatitis C virus; assay: Antiviral activity against HCV J6/JFH/JC-1 infected in human Huh7.5 cells harboring […] S282T mutant assessed as inhibition of viral core protein levels at 0.01 to 1 uM treated with fresh media containing compound every 2 days by Western blot method; format: functional, organism-based; settings: Hepacivirus hominis
[2] = test system: Hepatitis C virus; assay: Antiviral activity against 22.5 to 90 IU/cell of HCV J6/JFH/JC-1 infected in human Huh7.5 cells assessed as inhibition of NS3/4A levels at 0.05 uM treated with fresh media containing compound every 2 days by Western blot method; format: functional, organism-based; settings: Hepacivirus hominis
[3] = test system: Hepatitis C virus; assay: Antiviral activity against 22.5 to 90 IU/cell of HCV J6/JFH/JC-1 infected in human Huh7.5 cells assessed as inhibition of viral core protein levels at 0.05 uM treated with fresh media containing compound every 2 days by Western blot method; format: functional, organism-based; settings: Hepacivirus hominis
[4] = test system: Hepatitis C virus; assay: Antiviral activity against HCV infected in human GS4.3 cells assessed as inhibition of viral core protein levels at 0.8 uM treated with fresh media containing compound every 2 days measured after 6 days by Western blot method; format: functional, organism-based; settings: Hepacivirus hominis
[5] = test system: Hepatitis C virus; assay: Antiviral activity against HCV J6/JFH/JC-1 infected in human Huh7.5 cells assessed as inhibition of NS3/4A S282T mutant levels at 0.01 to 1 uM treated with fresh media containing compound every 2 days by Western blot method; format: functional, organism-based; settings: Hepacivirus hominis
[6] = test system: Hepatitis C virus; assay: Antiviral activity against HCV infected in human GS4.3 cells assessed as inhibition of NS3/4A levels at 0.8 uM treated with fresh media containing compound every 2 days measured after 6 days by Western blot method; format: functional, organism-based; settings: Hepacivirus hominis
[7] = test system: Hepatitis C virus; assay: Antiviral activity against HCV J6/JFH/JC-1 infected in human Huh7.5 cells assessed as inhibition of NS3/4A levels at 0.05 uM preincubated for 2 hrs followed by centrifugation for 4 hrs and subsequent addition of Huh7.5 cells measured within 72 hrs by Western blot method; format: functional, organism-based; settings: Hepacivirus hominis
[8] = test system: Hepatitis C virus; assay: Antiviral activity against HCV J6/JFH/JC-1 infected in human Huh7.5 cells assessed as inhibition of NS3/4A A156T mutant levels at 0.01 to 1 uM treated with fresh media containing compound every 2 days by Western blot method; format: functional, organism-based; settings: Hepacivirus hominis
[9] = Selectivity index, ratio of CC50 for human Huh7.5 cells to EC50 for HCV J6/JFH/JC-1; format: toxicity; settings: read-out: Ratio CC50/EC50
[10] = test system: Hepatitis C virus; assay: Antiviral activity against HCV J6/JFH/JC-1 infected in human Huh7.5 cells assessed as inhibition of viral core protein levels at 0.5 uM by Western blot method; format: functional, organism-based; settings: Hepacivirus hominis, TDE = time-dependent effect
[11] = test system: Hepatitis C virus; assay: Antiviral activity against HCV J6/JFH/JC-1 infected in human Huh7.5 cells assessed as inhibition of NS3/4A protein levels at 0.5 uM by Western blot method; format: functional, organism-based; settings: Hepacivirus hominis, TDE = time-dependent effect
[12] = test system: Hepatitis C virus; assay: Antiviral activity against HCV J6/JFH/JC-1 infected in human Huh7.5 cells assessed as inhibition of NS3/4A levels at 0.05 uM preincubated for 2 hrs followed addition of Huh7.5 cells for 4 hrs measured within 72 hrs by Western blot method; format: functional, organism-based; settings: Hepacivirus hominis
[13] = Cytotoxicity against human Huh7.5 cells after 72 hrs by MTT assay; format: cell-based
[14] = test system: Hepatitis C virus; assay: Antiviral activity against HCV J6/JFH/JC-1 infected in human Huh7.5 cells assessed as inhibition of viral RNA replication after 72 hrs by qRT-PCR method; format: functional, organism-based, Hepacivirus hominis; settings: J6/JFH/JC-1, Huh7.5, 72 h
[15] = test system: Hepatitis C virus; assay: Antiviral activity against HCV J6/JFH/JC-1 infected in human Huh7.5 cells assessed as inhibition of viral core protein levels at 0.05 uM preincubated for 2 hrs followed addition of Huh7.5 cells for 4 hrs measured within 72 hrs by Western blot method; format: functional, organism-based; settings: Hepacivirus hominis
[16] = test system: Hepatitis C virus; assay: Antiviral activity against HCV infected in human GS4.3 cells assessed as inhibition of viral core protein levels at 0.5 uM treated with fresh media containing compound every 2 days measured after 6 days by Western blot method; format: functional, organism-based; settings: Hepacivirus hominis
[17] = test system: Hepatitis C virus; assay: Antiviral activity against HCV infected in human GS4.3 cells assessed as inhibition of NS3/4A levels at 0.5 uM treated with fresh media containing compound every 2 days measured after 6 days by Western blot method; format: functional, organism-based; settings: Hepacivirus hominis
[18] = test system: Hepatitis C virus; assay: Antiviral activity against HCV J6/JFH/JC-1 infected in human Huh7.5 cells assessed as inhibition of viral core protein levels at 0.05 uM preincubated for 2 hrs followed by centrifugation for 4 hrs and subsequent addition of Huh7.5 cells measured within 72 hrs by Western blot method; format: functional, organism-based; settings: Hepacivirus hominis
[19] = test system: Hepatitis C virus; assay: Antiviral activity against HCV J6/JFH/JC-1 infected in human Huh7.5 cells harboring NS3/4A A156T mutant assessed as inhibition of viral core protein levels at 0.01 to 1 uM treated with fresh media containing compound every 2 days by Western blot method; format: functional, organism-based; settings: Hepacivirus hominis

**Q.** With `CC(C)OC(=O)[C@H](C)NP(=O)(OC[C@H]1O[C@@H](n2ccc(=O)[nH]c2=O)[C@](C)(F)[C@@H]1O)Oc1ccccc1` (some centres undefined) as the compound, how does the inhibition [1] read?
**A.** inactive

**Q.** And the inhibition [2]?
**A.** inactive

**Q.** What about the inhibition [3] of the same compound?
**A.** inactive

**Q.** And the inhibition [4]?
**A.** Active

**Q.** And the inhibition [5]?
**A.** inactive

**Q.** What about the inhibition [6] of the same compound?
**A.** Active

**Q.** With `CCC[C@H](NC(=O)[C@@H]1[C@H]2CCC[C@H]2CN1C(=O)[C@@H](NC(=O)[C@@H](NC(=O)c1cnccn1)C1CCCCC1)C(C)(C)C)C(=O)C(=O)NC1CC1` [TELAPREVIR] as the compound, how does the inhibition [7] read?
**A.** inactive

**Q.** What about the inhibition [8] of the same compound?
**A.** inactive

**Q.** And the selectivity ratio [9]?
**A.** 840

**Q.** What about the inhibition [10] of the same compound?
**A.** Tde

**Q.** What about the inhibition [11] of the same compound?
**A.** Tde

**Q.** And the inhibition [12]?
**A.** Active

**Q.** And the CC50 at 72 h [13]?
**A.** 25.2 µM

**Q.** And the EC50 [14]?
**A.** 0.03 µM

**Q.** What about the inhibition [15] of the same compound?
**A.** Active

**Q.** What about the inhibition [16] of the same compound?
**A.** Active

**Q.** And the inhibition [17]?
**A.** Active

**Q.** What about the inhibition [18] of the same compound?
**A.** inactive

**Q.** And the inhibition [19]?
**A.** inactive
